The source made the active and inactive calls. No cut-off for these calls is given here.
Experiments:
MDA-MB-468 [1] = assay: Cytotoxicity against human MDA-MB-468 cells harboring constitutively harboring activated STAT3 assessed as inhibition of cell viability at 10 uM after 72 hrs by MTT assay; assay type: functional; details: MDA-MB-468, 72 h
[2] = biological target: Tyrosine-protein kinase JAK2 (Homo sapiens) (UniProt O60674); assay: Effect on JAK2 phosphorylation in IL-6 stimulated human HepG2 cells at 50 uM treated for 6 hrs before IL-6 stimulation measured after 15 mins by Western blot analysis; assay type: cell-based
HepG2 [3] = assay: Effect on JAK2 level in IL-6 stimulated human HepG2 cells at 50 uM treated for 6 hrs before IL-6 stimulation measured after 15 mins by Western blot analysis; assay type: functional, cell-based
HepG2 [4] = assay: Effect on STAT3 level in IL-6 stimulated human HepG2 cells at 50 uM treated for 6 hrs before IL-6 stimulation measured after 15 mins by Western blot analysis; assay type: functional, cell-based
[5] = biological target: T1, Signal transducer and activator of transcription 3 (Homo sapiens, UniProt P40763); assay: Inhibition of STAT3 phosphorylation at Tyr705 in IL-6 stimulated human HepG2 cells at 50 uM treated for 6 hrs before IL-6 stimulation measured after 15 mins by Western blot analysis; assay type: cell-based
MDA-MB-468 [6] = assay: Cytotoxicity against human MDA-MB-468 cells harboring constitutively harboring activated STAT3 assessed as inhibition of cell viability after 72 hrs by MTT assay; assay type: functional, cell-based; details: MDA-MB-468, 72 h
[7] = biological target: T1, Signal transducer and activator of transcription 3; assay: Inhibition of STAT3 in IL-6-stimulated human HepG2 cells at 10 uM treated for 1 hr prior to IL-6 challenge measured after 5.5 hrs by luciferase reporter gene assay; assay type: cell-based
Homo sapiens = species on record: Homo sapiens; assay: Inhibition of TNF-alpha-stimulated NF-kappaB (unknown origin) activity at 10 uM
[8] = biological target: T2, Signal transducer and activator of transcription 1-alpha/beta (Homo sapiens) (UniProt P42224); assay: Inhibition of IFN-gamma-stimulated STAT1 (unknown origin) activity at 10 uM
T2 sequence (whole entry): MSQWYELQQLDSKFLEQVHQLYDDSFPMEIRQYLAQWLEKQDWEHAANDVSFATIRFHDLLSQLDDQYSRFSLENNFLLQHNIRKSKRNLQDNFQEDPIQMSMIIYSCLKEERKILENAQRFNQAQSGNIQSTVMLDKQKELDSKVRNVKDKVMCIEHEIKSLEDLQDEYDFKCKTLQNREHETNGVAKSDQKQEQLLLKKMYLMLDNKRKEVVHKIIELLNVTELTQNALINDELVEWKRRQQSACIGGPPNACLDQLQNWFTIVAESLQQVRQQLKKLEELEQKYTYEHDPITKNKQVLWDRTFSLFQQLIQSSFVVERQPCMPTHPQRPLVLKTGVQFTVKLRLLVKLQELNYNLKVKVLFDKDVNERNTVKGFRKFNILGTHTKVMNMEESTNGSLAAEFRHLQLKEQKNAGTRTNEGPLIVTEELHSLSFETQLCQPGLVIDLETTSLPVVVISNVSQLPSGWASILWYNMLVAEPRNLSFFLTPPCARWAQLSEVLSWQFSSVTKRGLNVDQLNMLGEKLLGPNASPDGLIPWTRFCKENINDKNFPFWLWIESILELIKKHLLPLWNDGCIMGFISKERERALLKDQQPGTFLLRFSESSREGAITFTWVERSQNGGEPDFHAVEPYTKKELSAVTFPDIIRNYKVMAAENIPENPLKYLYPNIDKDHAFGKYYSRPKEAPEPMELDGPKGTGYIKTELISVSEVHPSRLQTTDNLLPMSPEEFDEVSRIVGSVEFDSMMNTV

[9] = biological target: T1, Signal transducer and activator of transcription 3; assay: Inhibition of STAT3 phosphorylation at Tyr705 in IL-6 stimulated human HepG2 cells treated for 6 hrs before IL-6 stimulation measured after 15 mins by Western blot analysis; assay type: cell-based
[10] = biological target: T1, Signal transducer and activator of transcription 3; assay: Inhibition of STAT3 in IL-6-stimulated human HepG2 cells treated for 1 hr prior to IL-6 challenge measured after 5.5 hrs by luciferase reporter gene assay; assay type: cell-based

T1 sequence (P40763 whole entry): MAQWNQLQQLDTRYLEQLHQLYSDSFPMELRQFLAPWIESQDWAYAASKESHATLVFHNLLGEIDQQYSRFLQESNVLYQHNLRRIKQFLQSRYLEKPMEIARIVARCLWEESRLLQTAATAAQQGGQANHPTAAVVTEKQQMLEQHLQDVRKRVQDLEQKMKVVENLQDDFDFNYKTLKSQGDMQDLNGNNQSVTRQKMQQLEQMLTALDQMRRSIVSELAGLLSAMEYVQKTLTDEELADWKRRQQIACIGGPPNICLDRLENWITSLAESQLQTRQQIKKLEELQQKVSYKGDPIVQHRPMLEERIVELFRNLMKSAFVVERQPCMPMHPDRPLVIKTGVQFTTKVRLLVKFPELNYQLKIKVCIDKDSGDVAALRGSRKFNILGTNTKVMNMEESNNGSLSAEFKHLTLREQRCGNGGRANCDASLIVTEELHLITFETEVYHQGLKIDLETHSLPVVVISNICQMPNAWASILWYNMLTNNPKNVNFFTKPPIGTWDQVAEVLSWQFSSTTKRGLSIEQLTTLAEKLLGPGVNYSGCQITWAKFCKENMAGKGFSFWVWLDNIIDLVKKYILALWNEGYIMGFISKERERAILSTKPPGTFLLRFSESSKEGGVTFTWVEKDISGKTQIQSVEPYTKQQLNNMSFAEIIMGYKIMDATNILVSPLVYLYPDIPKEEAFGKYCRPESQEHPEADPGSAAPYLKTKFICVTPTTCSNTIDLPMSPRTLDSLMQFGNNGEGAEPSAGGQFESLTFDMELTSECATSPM
Sequence of Tyrosine-protein kinase JAK2 (Homo sapiens) (O60674 whole entry): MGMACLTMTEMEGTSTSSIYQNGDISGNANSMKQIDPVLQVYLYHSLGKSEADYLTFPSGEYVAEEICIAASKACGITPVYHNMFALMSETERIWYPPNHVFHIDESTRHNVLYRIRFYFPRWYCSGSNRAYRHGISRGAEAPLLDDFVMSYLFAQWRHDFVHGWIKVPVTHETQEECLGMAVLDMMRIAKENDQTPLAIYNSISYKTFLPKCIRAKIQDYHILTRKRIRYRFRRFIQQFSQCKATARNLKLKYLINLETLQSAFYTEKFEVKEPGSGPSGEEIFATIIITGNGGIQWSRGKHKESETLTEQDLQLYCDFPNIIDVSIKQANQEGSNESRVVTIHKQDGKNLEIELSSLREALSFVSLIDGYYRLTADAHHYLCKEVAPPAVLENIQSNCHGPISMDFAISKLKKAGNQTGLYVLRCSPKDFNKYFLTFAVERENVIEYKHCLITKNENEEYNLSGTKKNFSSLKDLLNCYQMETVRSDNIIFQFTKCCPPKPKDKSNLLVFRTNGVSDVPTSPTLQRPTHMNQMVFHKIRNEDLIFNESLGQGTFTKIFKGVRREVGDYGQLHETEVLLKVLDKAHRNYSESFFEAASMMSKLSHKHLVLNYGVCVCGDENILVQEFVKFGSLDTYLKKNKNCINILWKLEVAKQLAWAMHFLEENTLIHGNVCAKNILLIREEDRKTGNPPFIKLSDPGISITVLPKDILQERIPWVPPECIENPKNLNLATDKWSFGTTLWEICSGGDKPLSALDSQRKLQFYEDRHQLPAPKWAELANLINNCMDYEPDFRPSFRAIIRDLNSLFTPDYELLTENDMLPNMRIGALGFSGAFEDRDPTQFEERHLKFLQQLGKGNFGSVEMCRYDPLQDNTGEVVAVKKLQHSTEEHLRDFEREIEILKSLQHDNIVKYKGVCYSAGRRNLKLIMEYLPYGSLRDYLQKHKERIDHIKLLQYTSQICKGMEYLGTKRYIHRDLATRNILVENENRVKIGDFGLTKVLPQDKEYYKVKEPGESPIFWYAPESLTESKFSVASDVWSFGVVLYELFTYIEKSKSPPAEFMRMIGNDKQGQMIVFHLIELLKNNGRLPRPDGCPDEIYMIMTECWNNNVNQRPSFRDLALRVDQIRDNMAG

Row | SMILES | inhibition [7] | inhibition at 10 µM (MDA-MB-468 [1]) | other results
1 | COc1ccc(C(=O)Nc2ccc3nc(SCC(=O)NCc4ccc(F)cc4)sc3c2)cc1 |  | 5.48% | 
2 | CCc1cccc(CC)c1NC(=O)CSc1nc2ccc(NC(=O)c3ccccc3OC)cc2s1 | 25.8% | 23.9% | 
3 | CCc1cccc(CC)c1NC(=O)CSc1nc2ccc(NC(=O)C3CC3)cc2s1 | -9.23% | 32.4% | 
4 | COc1ccc(C(=O)Nc2ccc3nc(SCC(=O)Nc4ccc(F)c(Cl)c4)sc3c2)cc1 |  | 2.47% | 
5 | CCc1cccc(CC)c1NC(=O)CSc1nc2ccc(NC(=O)c3ccc([N+](=O)[O-])cc3)cc2s1 | -5.71% | 6.13% | 
6 | CCc1cccc(CC)c1NC(=O)CSc1nc2ccc(NC(=O)C(C)C)cc2s1 | -8.31% | -17.4% | 
7 | COc1ccc(C(=O)Nc2ccc(C(=O)OCC(=O)c3cccc([N+](=O)[O-])c3)cc2)cc1OC | 38.5% |  | inhibition (Homo sapiens): -4.32%; inhibition [8]: 13.8%
8 | O=C(CSc1nc2ccc(NC(=O)c3ccccc3)cc2s1)Nc1ccc(F)c(Cl)c1 |  | 9.04% | 
9 | CCCCCOc1ccc(C(=O)Nc2ccc3nc(SCC(=O)Nc4c(CC)cccc4CC)sc3c2)cc1 | 18.9% | 24.1% | 
10 | COc1ccc(NCc2nnc(SCC(=O)Nc3cccc4ccccc34)n2-c2ccc(OC)cc2)cc1 | 24% |  | 
11 | CCc1cccc(CC)c1NC(=O)CSc1nc2ccc(NC(=O)c3ccc(OC)cc3)cc2s1 |  | -0.77% | 
12 | CCCCOc1ccc(C(=O)Nc2ccc3nc(SC(C)C(=O)Nc4c(C)cc(C)cc4C)sc3c2)cc1 (centres undefined) | 21.5% |  | 
13 | CCc1cccc(CC)c1NC(=O)CSc1nc2ccc(NC(=O)c3cccnc3)cc2s1 | 14.4% | 8.23% | 
14 | CCc1cccc(CC)c1NC(=O)CSc1nc2ccc(NC(=O)C(C)Cl)cc2s1 (centres undefined) | -7.98% | -4.54% | 
15 | CCc1cccc(CC)c1NC(=O)CSc1nc2ccc(NC(=O)Cc3ccccc3OC)cc2s1 |  | -12.3% | 
16 | CCC(=O)Nc1ccc2nc(SCC(=O)Nc3c(CC)cccc3CC)sc2c1 | 2.36% | -12% | 
17 | COc1cc(/C=C/C(=O)CC(=O)/C=C/c2ccc(O)c(OC)c2)ccc1O [CURCUMIN] | 30.7% | 3.88% | inhibition [9]: Dose-dependent effect; IC50 (MDA-MB-468 [6]): 196 µM; IC50 [10]: 19.2 µM
18 | CCc1cccc(CC)c1NC(=O)CSc1nc2ccc(NC(=O)c3ccncc3)cc2s1 | 39.1% | 12.6% | 

Continued, in another order:

Row | inhibition [7] | SMILES | inhibition at 10 µM (MDA-MB-468 [1]) | other results
19 | 51.1% | CCCC(C)Oc1ccc(C(=O)Nc2ccc3nc(SCC(=O)N[C@@H](C)c4ccccc4)sc3c2)cc1 (some centres undefined) | 51.4% | Activity [2]: inactive; Activity (HepG2 [3]): inactive; Activity (HepG2 [4]): inactive; inhibition [5]: Active; IC50 (MDA-MB-468 [6]): 16.1 µM
20 | 23.8% | COc1ccc(C(=O)Nc2ccc3nc(SCC(=O)NCc4ccc([N+](=O)[O-])cc4)sc3c2)cc1 | -20.4% | 
21 | 30.7% | CCCCCOc1ccc(C(=O)Nc2ccc3nc(SCC(=O)N[C@@H](C)c4ccccc4)sc3c2)cc1 | 61.1% | 
22 | 49.5% | CCCCOc1ccc(C(=O)Nc2ccc3nc(SCC(=O)Nc4c(CC)cccc4CC)sc3c2)cc1 |  | 
23 | 30.9% | CCCCOc1ccc(C(=O)Nc2ccc3nc(SCC(=O)N[C@@H](C)c4ccccc4)sc3c2)cc1 | 57.2% | 
24 | 25.8% | CCCC(C)Oc1ccc(C(=O)Nc2ccc3nc(SCC(=O)Nc4c(CC)cccc4CC)sc3c2)cc1 (centres undefined) | 34.9% | 
25 | 22.6% | CCc1cccc(CC)c1NC(=O)CSc1nc2ccc(NC(=O)c3ccc(OCc4ccccc4)cc3)cc2s1 | 44.6% | 
26 | -0.31% | COc1ccc(C(=O)Nc2ccc3nc(SCC(=O)N[C@H](C)c4ccccc4)sc3c2)cc1 | -56.8% | 
27 | 43% | COc1ccc(C(=O)Nc2ccc3nc(SCC(=O)N[C@@H](C)c4ccccc4)sc3c2)cc1 | -44.7% | 
28 | 34.8% | CCC(Sc1nc2ccc(NC(=O)c3ccc(OC)cc3)cc2s1)C(=O)Nc1ccc(Br)cc1 (centres undefined) | 66.4% | Activity [2]: inactive; Activity (HepG2 [3]): inactive; Activity (HepG2 [4]): inactive; inhibition [5]: Active; IC50 (MDA-MB-468 [6]): 8.83 µM; inhibition [8]: 6.17%
29 | 11.5% | C[C@H](NC(=O)CSc1nc2ccc(NC(=O)c3ccc(OCc4ccccc4)cc3)cc2s1)c1ccccc1 | 3.02% | 
30 | 21.5% | COc1ccccc1C(=O)Nc1ccc2nc(SCC(=O)Nc3c(C)cccc3C)sc2c1 | 39% | 
31 | -5.89% | COc1ccc(C(=O)Nc2ccc3nc(SCC(=O)Nc4c(C)cccc4C)sc3c2)cc1 | 5.01% | 

Source: ChEMBL document CHEMBL2331222, “Discovery of novel inhibitors of signal transducer and activator of transcription 3 (STAT3) signaling pathway by virtual screening” (Eur J Med Chem, 2013)
